Laboratory results: patent publication US20090087870A1, “HEMATOLOGICAL ASSAY AND KIT” (DSM IP ASSETS B.V., priority 2002, published 2009)

Tests used:
[1] = test system: thrombin formation in plasma samples from healthy volunteers and hemophilia A patients; test: onset of thrombin formation in the inventive assay compared with the aPTT (onset of clotting by fibrin formation); format: biochemical; conditions: 250 μmol/l substrate added to aPTT activation (aluminium silicate, phospholipids, CaCl2); 80 plasma samples; FIG. 11
Description: FIG. 11 compares the detection of the onset of coagulation by the Fibrin Formation method and by the inventive method. For this experiment 80 plasma samples from healthy volunteers and hemophilia A patients were clotted by the addition of a contact phase activator (aluminium silicate, Sigma, St. Louis, USA), phospholipids (rabbit brain cephalin, Pentapharm, Basle) and CaCl2 (Sigma, St. Louis, USA). This procedure is called “Activated Partial Thromboplastin time” (aPTT). The time from the start of the procedure till clotting is detected is the aPTT. The inventive assay was performed using the identical activation procedure as the aPTT. The difference between the two procedures was the addition of the fast chromogenic substrate • (H-D-CHG-Ala-Arg-pNa.2AcOH, 250 μmol/l, Pentapharm) and the fibrin polymerisation inhibitor H-Gly-Pro-Arg-Pro-OH AcOH (5 mg/ml, Pentapharm) in the inventive assay.

[2] = biological target: thrombin (Homo sapiens, UniProt P00734); conditions: thrombin substrate, substrate-thrombin reaction; cited from earlier work

| Substance | effect on onset of thrombin formation [1] | Km [2] |
| --- | --- | --- |
| H-D-CHG-Ala-Arg-pNa.2AcOH | delayed the onset of the thrombin formation | 15.9 µM |
| H-β-Ala-Gly-Arg-pNA°2AcOH |  | 2000 µM |
